# Assay results reported in ChEMBL document CHEMBL1201862, “PubChem BioAssay data set” (2004).
# Activity calls are given as the source filed them. For most assays here, no stated cut-off is given here; in the data, actives have a measured EC50 and inactives only a lower limit.
# Experiments:
# [1] = NIH-3T3 fibroblast cytotoxicity, dose response, cytotoxicity control, cell-based, fluorescence, Alamar Blue, secondary assay (AID 2327); assay type: functional;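 further: NIH-3T3 mouse fibroblasts cultured with fluconazole at 8 µg/mL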
# [2] = C. albicans growth with fluconazole, confirmation, fluorescence, retest (AID 2467); assay type: functional, cell-based
# [3] = target: T1, Polyadenylate-binding protein 1 (Homo sapiens, UniProt P11940); assay: PABP1 MLLE–PAM2 interaction inhibitors, dose response, miRNA deadenylation inhibitor project, biochemical, fluorescence polarization, Cy5-PAM2 peptide, secondary (AID 602260); assay type: functional; conditions: read-out: IC50_Mean
# [4] = target: T1, Polyadenylate-binding protein 1; assay: PABP1 MLLE–PAM2 binding inhibitor potency, dose response, biochemical, fluorescence polarization, FITC-PAM2 peptide (AID 602259); assay type: functional; conditions: read-out: IC50_Mean
# [5] = target: T2, Carboxy-terminal domain RNA polymerase II polypeptide A small phosphatase 1 (Homo sapiens, UniProt Q9GZU7); assay: inhibitors of CTDSP1, concentration-response testing, biochemical assay, absorbance-based, actives from ultra-high-throughput screening (AID 540297); assay type: functional
# T2 sequence (Q9GZU7 whole entry): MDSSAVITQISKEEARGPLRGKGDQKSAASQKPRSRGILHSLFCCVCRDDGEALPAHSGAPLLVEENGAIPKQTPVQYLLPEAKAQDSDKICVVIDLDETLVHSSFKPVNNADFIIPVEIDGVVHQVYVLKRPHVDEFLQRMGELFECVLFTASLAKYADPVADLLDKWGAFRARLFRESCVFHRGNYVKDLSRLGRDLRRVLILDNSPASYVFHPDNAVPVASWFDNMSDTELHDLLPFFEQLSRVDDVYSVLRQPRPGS
# [6] = inhibitors of firefly luciferase expression or activity, dose response, H4 neuroglioma cells, luminescence (AID 1990); assay type: functional, cell-based
# [7] = Luminescence Cell-Based Dose Response HTS to Identify Inhibitors of 5'UTR Stem-Loop Driven Prion Protein mRNA Translation in H4 Neuroglioblastoma Cells. [Related pubchem assays: 1827 (Project Summary), 1813 (Primary HTS)]; assay type: functional
# [8] = inhibitors of SNCA 5'UTR-driven reporter translation, confirmation, H4 neuroglioma cells, luminescence (AID 1988); assay type: functional, cell-based
# Paired box protein Pax-8 = Paired box protein Pax-8 (Homo sapiens, UniProt Q06710); assay: inhibitors of PAX8-driven TPO luciferase reporter, dose response, RMG-I cells, cherry-pick (AID 687027); assay type: functional, cell-based;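 further: luciferase reporter driven by Pax8 target thyroperoxidase promoter measured by SteadyGlo luminescence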
# [9] = HEp-2 cell cytotoxicity, dose response, cytotoxicity control for RSV inhibitor project, HTS (AID 2410); assay type: functional; conditions: human respiratory syncytial virus
# [10] = Luminescence Cell-Based Dose Retest to Confirm Inhibitors of Cancer Stem Cells. [Related pubchem assays (depositor defined):AID2717, AID2721]; assay type: functional; conditions: Homo sapiens
# [11] = target: T3, Heat shock factor protein 1 (Mus musculus, UniProt P38532); assay: inhibition of MG132-induced HSE-luciferase signal, confirmation, cell-based, NIH3T3, luminescence, dose retest (AID 2382); assay type: functional;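 further: NIH3T3 fibroblasts with HSF1-driven luciferase reporter stressed by proteasome inhibitor MG132; luminescence from HSF1-driven luciferase expression after 8 hours of MG132 stress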
# T3 sequence (P38532 whole entry): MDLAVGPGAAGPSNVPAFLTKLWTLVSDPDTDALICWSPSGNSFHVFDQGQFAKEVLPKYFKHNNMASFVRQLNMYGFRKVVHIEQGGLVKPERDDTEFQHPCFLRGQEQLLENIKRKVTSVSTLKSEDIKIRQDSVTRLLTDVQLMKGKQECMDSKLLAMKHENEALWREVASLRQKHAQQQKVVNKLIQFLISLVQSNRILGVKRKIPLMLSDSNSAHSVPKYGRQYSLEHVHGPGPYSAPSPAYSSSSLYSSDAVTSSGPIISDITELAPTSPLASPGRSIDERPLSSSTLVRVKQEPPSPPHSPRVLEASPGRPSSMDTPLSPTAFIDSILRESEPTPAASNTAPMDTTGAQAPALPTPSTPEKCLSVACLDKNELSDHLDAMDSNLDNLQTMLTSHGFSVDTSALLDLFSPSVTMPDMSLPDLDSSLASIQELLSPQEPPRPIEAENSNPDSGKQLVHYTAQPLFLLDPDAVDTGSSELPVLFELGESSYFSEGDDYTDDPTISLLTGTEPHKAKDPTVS
# [12] = test system: Streptococcus sp. 'group A'; assay: growth inhibition of control SK(-) GAS strain, dose response, counter-screen for streptokinase expression inhibitor project, luminescence, kanamycin, BacTiterGlo, confirmation (AID 1900); assay type: functional, organism-based
# Streptococcus = assay: Group A Streptococcus viability loss, dose response, counter-screen for streptokinase expression inhibitor project, luminescence, BacTiterGlo (AID 1915); assay type: functional, organism-based;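 further: potency for reduction of bacterial viability or growth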
# [13] = inhibitors of intracellular T. cruzi replication, confirmation, NIH3T3 host cells, beta-gal luminescence (AID 2044); assay type: functional, cell-based;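 further: intracellular parasites grown in NIH/3T3 mouse fibroblasts as host cells; luminescent beta-galactosidase reporter signal from transgenic T. cruzi replicating inside host cells; inhibitors lower the luminescence signal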
# [14] = cytotoxicity toward NIH3T3 fibroblasts, dose response, counter-screen, cell-based, ATP luminescence, mouse fibroblasts (AID 2010); assay type: functional;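 further: cells exposed to compound for about 90 hours before reading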
# [15] = target: FAD-linked sulfhydryl oxidase ALR (Homo sapiens, UniProt P55789); assay: inhibitors of human ALR sulfhydryl oxidase, dose response, biochemical, H2O2 detection, luminescence, cherry-pick (AID 493248)
# [16] = growth suppression of beta-catenin-knockout colon cells, dose response, cell-based, HCT116, human colon tumor (AID 1045); assay type: functional;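 further: HCT116 colon tumor cells with beta catenin knocked out; cells exposed to compound for 60 hours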
# T1 sequence (P11940 whole entry): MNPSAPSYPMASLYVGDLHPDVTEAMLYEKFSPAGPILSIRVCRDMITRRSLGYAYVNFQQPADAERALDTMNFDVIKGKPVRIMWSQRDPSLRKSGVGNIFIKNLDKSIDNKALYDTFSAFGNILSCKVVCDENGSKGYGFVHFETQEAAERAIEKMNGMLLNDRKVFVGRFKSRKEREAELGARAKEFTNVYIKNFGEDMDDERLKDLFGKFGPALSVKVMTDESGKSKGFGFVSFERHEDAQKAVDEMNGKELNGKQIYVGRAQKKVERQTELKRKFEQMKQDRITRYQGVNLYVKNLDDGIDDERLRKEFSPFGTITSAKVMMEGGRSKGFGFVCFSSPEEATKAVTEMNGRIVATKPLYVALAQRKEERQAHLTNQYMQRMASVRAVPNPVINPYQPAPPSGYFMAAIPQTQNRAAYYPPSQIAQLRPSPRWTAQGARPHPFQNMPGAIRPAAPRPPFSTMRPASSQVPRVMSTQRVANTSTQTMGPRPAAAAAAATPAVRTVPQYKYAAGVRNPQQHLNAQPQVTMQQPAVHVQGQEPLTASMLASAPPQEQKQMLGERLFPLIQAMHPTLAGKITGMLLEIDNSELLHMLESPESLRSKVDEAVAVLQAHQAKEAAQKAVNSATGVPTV
# Paired box protein Pax-8, sequence (Q06710 whole entry): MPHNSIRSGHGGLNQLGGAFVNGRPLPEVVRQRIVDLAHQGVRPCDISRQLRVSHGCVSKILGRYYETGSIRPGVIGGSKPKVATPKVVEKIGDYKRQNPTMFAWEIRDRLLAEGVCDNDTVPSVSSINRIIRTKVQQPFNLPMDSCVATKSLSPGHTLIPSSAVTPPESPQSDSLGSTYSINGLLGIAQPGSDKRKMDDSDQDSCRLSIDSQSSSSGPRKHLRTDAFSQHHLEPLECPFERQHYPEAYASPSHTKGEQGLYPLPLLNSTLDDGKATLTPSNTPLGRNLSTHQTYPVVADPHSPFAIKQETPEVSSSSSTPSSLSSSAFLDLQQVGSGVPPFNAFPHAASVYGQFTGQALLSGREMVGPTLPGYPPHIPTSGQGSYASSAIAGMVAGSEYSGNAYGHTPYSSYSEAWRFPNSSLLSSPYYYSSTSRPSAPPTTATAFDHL
# FAD-linked sulfhydryl oxidase ALR, sequence (P55789 whole entry): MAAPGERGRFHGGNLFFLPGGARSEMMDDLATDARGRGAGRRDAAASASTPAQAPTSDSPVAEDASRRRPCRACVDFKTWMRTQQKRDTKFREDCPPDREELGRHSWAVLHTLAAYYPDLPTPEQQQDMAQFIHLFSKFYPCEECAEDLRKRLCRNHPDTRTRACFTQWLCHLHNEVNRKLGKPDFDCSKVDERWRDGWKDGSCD
smiles,measurement,setting,value
Cc1nc(NS(=O)(=O)c2ccc(Br)cc2)c2c3c(sc2n1)CCC3,EC50,[1],> 160 µM (inactive)
same,EC50,[2],1.93 µM (active)
COc1ccc(C(=O)NC2(C(F)(F)F)N=C3SCCN3C2=O)cc1 (configuration not stated),IC50,[3],> 66 µM (inactive)
same,IC50,[4],> 66 µM (inactive)
O=c1oc2c(-c3ccc([N+](=O)[O-])cc3)cc(O)cc2s1,IC50,[5],6.91 µM (active)
CCOC(=O)C1=C(C)N(C)C(C)=C(C(=O)OCC)C1c1ccc(C(=O)OC)cc1,EC50,[6],35.5 µM (active)
same,EC50,[7],> 120 µM (not active)
same,EC50,[8],37.9 µM (active)
COc1cc2c(cc1OC)C(c1ccccc1O)N(C1CC(=O)N(c3ccccc3)C1=O)CC2 (configuration not stated),IC50,[3],> 66 µM (inactive)
same,IC50,[4],> 66 µM (inactive)
C=CCSC1=C(C#N)C(c2ccccc2OCC)C(C#N)C(=O)N1 (configuration not stated),IC50,[3],> 66 µM (inactive)
same,IC50,[4],> 66 µM (inactive)
CC(C)CC#Cc1ccc2c(c1)O[C@@H](CN(C)Cc1ccncc1)[C@H](C)CN([C@@H](C)CO)S2(=O)=O,AC50,Paired box protein Pax-8,5.97 µM (active)
CN(c1ccccc1)S(=O)(=O)c1cccc(NC(=O)CN2CCc3ccccc3C2)c1,CC50,[9],22.4 µM (active)
COc1ccc(Nc2ccc(N3C(=O)CC(C)C3=O)cc2[N+](=O)[O-])cn1 (configuration not stated),IC50,[3],> 66 µM (inactive)
same,IC50,[4],48.4 µM (inactive)
O=C(O)CC(SCC(=O)Nc1ccc(S(=O)(=O)N2CCCC2)cc1)C(=O)O (configuration not stated),IC50,[3],> 66 µM (inactive)
same,IC50,[4],> 66 µM (inactive)
O=C(Nc1cc(F)cc(F)c1)c1ccc(NCCCN2CCCCCC2)c([N+](=O)[O-])c1,EC50,[1],105 µM (active)
same,EC50,[2],> 38 µM (not active)
C=C(C)COc1ccc(-c2n[nH]cc2-c2ccc(OC)cc2)c(O)c1,CC50,[9],14.8 µM (active)
same,AC50,[10],7.79 µM (active)
Cc1nc(Sc2ccc(Cl)cc2)c(C#N)c(C)c1[N+](=O)[O-],CC50,[9],13.2 µM (active)
CCOC(=O)CSC1=C(C#N)C(c2ccccc2C)C2=C(O)CCCC2=N1 (configuration not stated),EC50,[11],> 195 µM (not active)
CCC1=CC(c2ccccc2)n2ncnc2N1 (configuration not stated),EC50,[11],> 195 µM (not active)
COc1ccccc1NC(=O)CN1CCN(c2ccccc2OC)CC1,EC50,[1],> 160 µM (inactive)
same,EC50,[2],> 38 µM (not active)
CCOC(=O)COc1ccc(S(=O)(=O)N2CCN(c3ccccc3F)CC2)cc1,EC50,[1],> 150 µM (inconclusive)
same,EC50,[2],> 38 µM (not active)
O=C(Nc1nnc(SCc2c(Cl)cccc2Cl)s1)C1CC(=O)N(c2ccc3c(c2)OCCO3)C1 (configuration not stated),EC50,[12],44.2 µM (active)
same,EC50,Streptococcus,31.8 µM (active)
same,IC50,[5],4.6 µM (active)
Cc1c(C(=O)C(=O)N2c3ccc(F)cc3CCC2C)c2ccccc2n1C (configuration not stated),EC50,[6],10.5 µM (active)
same,EC50,[7],12.2 µM (active)
same,EC50,[8],5.47 µM (active)
Cc1cccc(OCC(O)CN2CCN(S(=O)(=O)c3ccc(C)cc3C)CC2)c1 (configuration not stated),EC50,[6],> 120 µM (not active)
same,EC50,[7],> 120 µM (not active)
same,EC50,[8],15.9 µM (active)
COCCN(Cc1cc2cc3c(cc2n2nnnc12)OCO3)C(=O)c1ccccc1F,EC50,[6],> 120 µM (not active)
same,EC50,[7],> 120 µM (not active)
same,EC50,[8],> 120 µM (not active)
C=CC[N+]1(C)CC[C@]23c4c5ccc(O)c4O[C@H]2C(=O)CC[C@@]3(O)[C@H]1C5 (some centres not stated) [NALOXONE METHIODIDE],IC50,[5],9.73 µM (active)
C[C@@H]1CN([C@@H](C)CO)C(=O)c2cc(NS(=O)(=O)c3ccc(Cl)cc3)ccc2O[C@@H](C)CCCCO[C@H]1CN(C)Cc1ccc(C(F)(F)F)cc1,AC50,Paired box protein Pax-8,8.29 µM (active)
CCCN(CCC)S(=O)(=O)c1ccc(NC(=O)c2cc(C(=O)OC)cc([N+](=O)[O-])c2)cc1,EC50,[11],> 195 µM (not active)
same,EC50,[13],0.323 µM (active)
same,EC50,[14],> 60 µM (inconclusive)
Cc1ccc(C)c2nc(O)c(CCNC(=O)C(C)(C)C)cc12,EC50,[11],> 195 µM (not active)
Cc1ccc(S(=O)(=O)CC(=O)Nc2nnc(C(C)(C)C)s2)cc1,IC50,[3],> 66 µM (inactive)
same,IC50,[4],> 66 µM (inactive)
Cc1c(NC(=S)NC(=O)c2cccc3ccccc23)cccc1C(=O)O,IC50,[3],> 66 µM (inactive)
same,IC50,[4],> 66 µM (inactive)
CCN(c1ccccc1)S(=O)(=O)c1ccc(Cl)c(NC(=O)CN2C(=O)NC3(CCCC3)C2=O)c1,EC50,[1],> 150 µM (inconclusive)
same,EC50,[2],4.42 µM (active)
COc1ccccc1N1CCN(S(=O)(=O)CCNC(=O)c2ccc(Br)o2)CC1,EC50,[6],> 120 µM (not active)
same,EC50,[7],> 120 µM (not active)
same,EC50,[8],> 120 µM (not active)
CS(=O)(=O)N(CC(=O)NCCSC1CCCCC1)c1ccc2c(c1)OCO2,EC50,[11],> 195 µM (not active)
O=C(CCl)Nc1cc2[nH]c(O)nc2cc1Br,AC50,Paired box protein Pax-8,3.95 µM (active)
N#Cc1c(NC(=O)c2nc3ncccn3n2)sc2c1CCCCC2,EC50,[1],> 150 µM (inactive)
same,EC50,[2],0.403 µM (active)
CC(=O)c1ccc(NC(=O)CCS(=O)(=O)c2ccc3c(c2)n(C)c(=O)c(=O)n3C)cc1,IC50,[5],> 80 µM (inactive)
O=C(Nc1ccc2c(c1)CCCN2C(=O)c1cccs1)c1c(F)cccc1Cl,CC50,[9],24.1 µM (active)
Cc1c(NC(=S)NC(=O)CSc2ccc(Cl)cc2)cccc1C(=O)O,IC50,[3],> 66 µM (inactive)
same,IC50,[4],> 66 µM (inactive)
Oc1nc(SCCOc2cccc3ccccc23)nc2ccccc12,EC50,[6],15.4 µM (active)
same,EC50,[7],> 120 µM (not active)
same,EC50,[8],> 120 µM (not active)
Cc1ccccc1C(=O)NCCNc1ccc([N+](=O)[O-])cc1,EC50,[6],> 120 µM (not active)
same,EC50,[7],> 120 µM (not active)
same,EC50,[8],> 120 µM (not active)
O=[N+]([O-])c1cccc(CN2[C@@H](Cc3ccccc3)COCCS2(=O)=O)c1,EC50,[11],> 195 µM (not active)
Cc1cccc2cc(CN(CC3CCCO3)C(c3nnnn3Cc3ccco3)C(C)C)c(O)nc12 (configuration not stated),CC50,[9],16.8 µM (active)
CN(C)c1ccc(/C=N/Nc2ccc(-n3ccnc3)nn2)cc1,EC50,[11],> 195 µM (not active)
same,AC50,[15],3.85 µM (active)
CCOC(=O)C1CCCN(c2nc3ccccc3nc2C(C#N)C(=O)OCC)C1 (configuration not stated),CC50,[9],33.7 µM (active)
CC(C)(C)c1cc(C(=O)NNc2ccc(OC(F)(F)F)cc2)n(Cc2ccccc2)n1,EC50,[1],> 160 µM (inactive)
same,EC50,[2],3.05 µM (active)
COc1ccccc1S(=O)(=O)N(C)C[C@@H]1Oc2cc(C#CCC3CCCC3)ccc2S(=O)(=O)N([C@@H](C)CO)C[C@@H]1C,AC50,Paired box protein Pax-8,6.16 µM (active)
COc1cc(/C=C/C(=O)NC(C)C2CC3CCC2C3)cc(OC)c1OC (configuration not stated),EC50,[11],> 195 µM (not active)
CC1CCN(c2ccc(NC(=S)NC(=O)c3ccc(-c4cccc([N+](=O)[O-])c4)o3)cc2)CC1,IC50,[3],> 66 µM (inactive)
same,IC50,[4],> 66 µM (inactive)
O=C(Nc1cc(S(=O)(=O)Nc2ccc(Cl)cc2)ccc1N1CCCCC1)c1ccc(F)cc1Cl,AC50,[10],2.07 µM (active)
same,IC50,[3],> 66 µM (inactive)
same,IC50,[4],> 66 µM (inactive)
CC(=O)ON1C(C)(C)CC(OC(=O)c2ccccc2)CC1(C)C,EC50,[16],124 µM (active)
COc1cc(O)nc(SCC(=O)Nc2nc3c(s2)CCCC3)n1,EC50,[11],> 195 µM (not active)
O=C(O)c1cccc(-n2cccc2/C=C2\SC(=O)N(Cc3ccccc3F)C2=O)c1,IC50,[5],4.62 µM (active)
